The record followed here is ChEMBL document CHEMBL1201862, “PubChem BioAssay data set” (2004).

Test systems include PC-3; 786-0; TK-10; IGROV-1; HOP-92; CCRF-CEM; SW-620; NCI-H23; OVCAR-3; RXF 393; K562; BT-549; HOP-62; EKVX; A549; SNB-75; COLO 205; SNB-19; NCI-H522; NCI-H226.
Common to all, as to assay: DTP human tumour cell line panel, 48 h

Each structure is given as a SMILES string.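 Five concentrations, 48 hours, 96-well plates. GI50 is the concentration that inhibits growth by half.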 Active and inactive are the calls of the source. Rule as the data show it: active = GI50 up to about 1.1 µM and inactive = higher.

As usually defined, the GI50 is the concentration giving 50% growth inhibition. For `Cc1ccc(O)c(C2=CC3=NNC(=O)C3C(c3cccc(Br)c3)C2)c1` (stereo not given), the GI50 is 34.3 µM (inactive) with PC-3; 29.5 µM (inactive) in the test with 786-0; 18.6 µM (inactive) with TK-10; 23.1 µM (inactive) in the test with IGROV-1; 16.6 µM (inactive) in the test with HOP-92; 25.1 µM (inactive) with CCRF-CEM. Besides, the GI50 with SW-620 is 27.7 µM (inactive); in the test with NCI-H23, 23.7 µM (inactive); with OVCAR-3, 22.3 µM (inactive); in the test with RXF 393 it was 14.2 µM (inactive); in the test on K562, 25.8 µM (inactive); in the test on BT-549, 23.1 µM (inactive). The GI50 with HOP-62 was 55 µM (inactive); in the test on EKVX, 25.9 µM (inactive); with A549 it was 23 µM (inactive); in the test with SNB-75, 22.6 µM (inactive); with COLO 205, 12.3 µM (inactive); in the test on SNB-19 it was 34.2 µM (inactive).
For `CC(C)(O)C1CC[C@]2(C)[C@H]3CC[C@@H]4[C@@]5(C)CCCC(C)(C)[C@@H]5CC[C@@]4(C)[C@]3(C)CC[C@@H]12` (stereo not given in full), the GI50 in the test with PC-3, with 786-0, with TK-10, with IGROV-1, in the test with HOP-92 and with CCRF-CEM was > 100 µM (inactive) throughout. For the same compound, the GI50 with SW-620, in the test with NCI-H23, with OVCAR-3, in the test with RXF 393, in the test on BT-549 and with HOP-62 was > 100 µM (inactive) in each case. Also, the GI50 in the test with EKVX, in the test with NCI-H522, in the test on A549, in the test with COLO 205 and in the test with SNB-19 was > 100 µM (inactive) throughout.
For the compound `CCOC(=O)c1ccc2nc3n(c2c1)C(c1c(F)cccc1F)SC3` (stereo not given), the GI50 with PC-3 was 72.1 µM (inactive); in the test with 786-0, 55.7 µM (inactive); in the test on TK-10, > 100 µM (inactive); in the test on IGROV-1, 86.7 µM (inactive); in the test with HOP-92 it was > 100 µM (inactive); in the test on CCRF-CEM it was > 100 µM (inactive). For the same compound, the GI50 with SW-620 is > 100 µM (inactive); with NCI-H23, 78.9 µM (inactive); in the test on OVCAR-3, 67.1 µM (inactive); in the test with NCI-H226 it was 15.1 µM (inactive); in the test with RXF 393, 24.9 µM (inactive); with K562 it was > 100 µM (inactive). The GI50 in the test on BT-549 is > 100 µM (inactive); in the test with HOP-62 it was 57.3 µM (inactive); with EKVX, 29.9 µM (inactive); in the test on A549 it was 79.1 µM (inactive); in the test on SNB-75, > 100 µM (inactive); in the test with COLO 205, > 100 µM (inactive). Besides, the GI50 in the test on SNB-19 is 95.3 µM (inactive).
`COc1cc(Cc2nccc3cc(OC)c(OC)cc23)c(C(C)=O)cc1OC`: the GI50 in the test with PC-3 is > 100 µM (inactive); in the test on 786-0 it was 65.2 µM (inactive); in the test with TK-10, 139 µM (inactive); in the test with IGROV-1, 173 µM (inactive); in the test on HOP-92, 150 µM (inactive); in the test on NCI-H23, 124 µM (inactive). The GI50 with OVCAR-3 was 34.5 µM (inactive); in the test with NCI-H226 it was 10.8 µM (inactive); with RXF 393, 189 µM (inactive); in the test on BT-549, > 100 µM (inactive); with HOP-62 it was 39.4 µM (inactive); in the test with EKVX, 205 µM (inactive). The GI50 was 10.2 µM (inactive) in the test with NCI-H522; > 300 µM (inactive) in the test on A549; 3.09 µM (inactive) in the test with SNB-75; 18.4 µM (inactive) with COLO 205; 300 µM (inactive) in the test on SNB-19.
As to `COc1cc(/C=C2\CCC/C(=C\c3ccc(O)c(OC)c3)C2=O)ccc1O` [CYCLOVALONE], the GI50 is 3.66 µM (inactive) in the test on PC-3; 2.07 µM (inactive) with 786-0; 5 µM (inactive) with TK-10; 2.77 µM (inactive) in the test with IGROV-1; 5.2 µM (inactive) in the test on HOP-92; 0.525 µM (active) with CCRF-CEM. For the same compound, the GI50 in the test with SW-620 was 2.7 µM (inactive); in the test on NCI-H23 it was 6.75 µM (inactive); with OVCAR-3, 2.74 µM (inactive); in the test with NCI-H226, 6.17 µM (inactive); in the test on RXF 393 it was 2.24 µM (inactive); with K562 it was 3.22 µM (inactive). For the same compound, the GI50 in the test on BT-549 was 3.59 µM (inactive); with HOP-62 it was 2.84 µM (inactive); in the test with EKVX, 6.84 µM (inactive); in the test on NCI-H522, 1.57 µM (inactive); with A549, 2.73 µM (inactive); with COLO 205 it was 14.2 µM (inactive). In the test with SNB-19, the GI50 was 6.15 µM (inactive).
Regarding `c1ccc(B2OCC(C3OB(c4ccccc4)OC4COB(c5ccccc5)OC43)O2)cc1` (stereo not given), the GI50 with PC-3, in the test with 786-0, in the test with TK-10, in the test with IGROV-1, in the test with HOP-92 and in the test on CCRF-CEM was > 100 µM (inactive) throughout. The GI50 in the test with SW-620, with NCI-H23, with OVCAR-3, in the test on RXF 393, in the test on K562 and in the test on BT-549 was > 100 µM (inactive) throughout. For the same compound, the GI50 was > 100 µM (inactive) with HOP-62; > 100 µM (inactive) in the test with EKVX; 24.5 µM (inactive) in the test on NCI-H522; > 100 µM (inactive) in the test with A549; > 100 µM (inactive) in the test with SNB-75; > 100 µM (inactive) in the test on COLO 205. Besides, the GI50 with SNB-19 is > 100 µM (inactive).
For `COc1cc2c(c3oc4c(O)cccc4c(=O)c13)CC(C(C)(O)CO)O2` (stereo not given), the GI50 with PC-3 was > 100 µM (inactive); with 786-0, 65.6 µM (inactive); in the test on TK-10, > 100 µM (inactive); in the test with IGROV-1 it was 41.7 µM (inactive); in the test with HOP-92, 37.2 µM (inactive); in the test with CCRF-CEM it was 21.3 µM (inactive). Moreover, the GI50 in the test on SW-620 was 47.6 µM (inactive); in the test on NCI-H23, 95.7 µM (inactive); in the test with OVCAR-3, > 100 µM (inactive); with NCI-H226 it was > 100 µM (inactive); in the test on RXF 393, 7.74 µM (inactive); with K562 it was 55.6 µM (inactive). Besides, the GI50 with BT-549 is 34.5 µM (inactive); with HOP-62, > 100 µM (inactive); in the test on EKVX it was > 100 µM (inactive); in the test on NCI-H522, 35.1 µM (inactive); in the test with A549, > 100 µM (inactive); in the test on COLO 205, > 100 µM (inactive). In addition, the GI50 in the test on SNB-19 was 94.4 µM (inactive).
For the compound `C/C(=N\NC(=O)/C(C#N)=C\c1ccc(N(CCC#N)CCC#N)cc1)c1ccccc1`, the GI50 in the test on PC-3, in the test on 786-0, in the test with TK-10, in the test on IGROV-1, with HOP-92 and in the test with SW-620 was > 10 µM (inactive) throughout. Also, the GI50 in the test with NCI-H23, with NCI-H226, with RXF 393, with BT-549, in the test with HOP-62 and with EKVX was > 10 µM (inactive) in each case. The GI50 in the test with NCI-H522 was > 10 µM (inactive); in the test on A549 it was > 10 µM (inactive); with SNB-75, > 10 µM (inactive); in the test on COLO 205, > 10 µM (inactive); with SNB-19, 4.1 µM (inactive).
Consider `O=C(/C=C/c1ccc(O)c(O)c1)OCCCOC(=O)/C=C/c1ccc(O)c(O)c1`, for which the GI50 was 30.5 µM (inactive) with PC-3; 20.2 µM (inactive) with 786-0; 29.3 µM (inactive) with TK-10; 13.3 µM (inactive) in the test on IGROV-1; 20 µM (inactive) with HOP-92; 2.63 µM (inactive) with CCRF-CEM. The GI50 in the test with SW-620 was 11.4 µM (inactive); with NCI-H23 it was 20.9 µM (inactive); in the test with OVCAR-3, 10.8 µM (inactive); in the test with RXF 393, 26.8 µM (inactive); with K562, 22.3 µM (inactive); in the test on BT-549, 25.3 µM (inactive). Besides, the GI50 in the test on HOP-62 is 11.7 µM (inactive); in the test with EKVX, 33.4 µM (inactive); with NCI-H522, 11.6 µM (inactive); in the test on A549, 31.3 µM (inactive); with SNB-75 it was 47.2 µM (inactive); in the test on COLO 205, 28.9 µM (inactive). Moreover, the GI50 in the test with SNB-19 was 31.4 µM (inactive).
Take `O=S(=O)(O)c1ccc(/N=N/c2ccc3c(S(=O)(=O)O)cccc3c2O)c2ccccc12`: the GI50 in the test with PC-3, with 786-0, in the test on TK-10, with IGROV-1, in the test on HOP-92 and with SW-620 was > 100 µM (inactive) throughout. Further, the GI50 in the test with NCI-H23, with OVCAR-3, in the test on NCI-H226, with RXF 393, in the test with BT-549 and in the test on HOP-62 was > 100 µM (inactive) each time. The GI50 in the test on EKVX, in the test with NCI-H522, in the test on A549, with SNB-75, with COLO 205 and in the test with SNB-19 was > 100 µM (inactive) each time.
In the case of `CC(C)c1cc(=O)[nH]c2cc(N)ccc12`, the GI50 in the test on PC-3, in the test with 786-0, in the test on IGROV-1, with HOP-92, in the test with CCRF-CEM and in the test with SW-620 was > 100 µM (inactive) each time. Besides, the GI50 with NCI-H23, in the test with OVCAR-3, in the test on NCI-H226, with RXF 393, in the test with K562 and with BT-549 was > 100 µM (inactive) throughout. In addition, the GI50 with HOP-62 was > 100 µM (inactive); in the test with EKVX it was > 100 µM (inactive); in the test with A549 it was > 100 µM (inactive); in the test with SNB-75 it was 86.9 µM (inactive); with COLO 205 it was > 100 µM (inactive); with SNB-19, > 100 µM (inactive).
